Results taken from patent US9273084B2, “Moenomycin analogs, methods of synthesis, and uses thereof” (priority 2012, dated 2016).
Structures can show the parent of a compound that is named as a salt.

Experiments:
Format in all cases: cell-based
E. coli MG1655 = test: MIC assay, 96 well broth dilution with MTT staining; parameters: unit not given beside the values; conditions: LB, 35-37° C., 20 h
Procedure: (§1) A 96 well plate with 100 μL test medium in all wells was prepared by handheld multipipettor. A stock solution of the antibiotic or compound in DMSO (0.05˜10 mg/mL, 5 μL) and the same medium (95 μL) were put together into column one, where the compound concentration doubled the highest one to be tested. Two columns were necessary for each compound to check the reproducibility. The compound was diluted by adding 100 μL from column one to column two with a 50% volume mix done three times; diluting serially across the plate was continued.
(§2) The day before the assay was scheduled to be run, strains were suspended in the test media (Brain Heart Infusion (BHI) containing 0.1% casamino acids for S. aureus, S. epidermidis, and E. faecalis, Trypticase Soy Broth (TSB) containing 5% sheep blood for S. pneumoniae, and Lysogeny Broth (LB) for E. coli) and incubated overnight at 35-37° C. The suspension was diluted with the same media to 1%, 100 μL of which was added to each well of the MIC plate. The MIC plate was incubated at 35-37° C. for 20 h. A thiazolyl blue tetrazolium bromide (MTT) solution (1 mg/mL-water, 50 μL) was added into each well and the resulting MIC plate was incubated at 35-37° C. for a few hours to stain wells in which cell proliferated. Growth is also visible as any turbidity in wells.

E. faecalis 29212 = test: as above; parameters: unit not given beside the values; conditions: BHI containing 0.1% casamino acids, 35-37° C., 20 h
Procedure: as §1, §2

E. faecalis 33186 = test: as above; parameters: unit not given beside the values; conditions: BHI containing 0.1% casamino acids, 35-37° C., 20 h
Procedure: as §1, §2

S. aureus 13709 = test: as above; parameters: unit not given beside the values; conditions: BHI containing 0.1% casamino acids, 35-37° C., 20 h
Procedure: as §1, §2

S. aureus 25923 = test: as above; parameters: unit not given beside the values; conditions: S. aureus 25923 (second strain line); BHI containing 0.1% casamino acids; 35-37° C., 20 h
Procedure: as §1, §2

S. epidermidis 1228 = test: as above; parameters: unit not given beside the values; conditions: BHI containing 0.1% casamino acids, 35-37° C., 20 h
Procedure: as §1, §2

S. epidermidis 700562 = test: as above; parameters: unit not given beside the values; conditions: BHI containing 0.1% casamino acids, 35-37° C., 20 h
Procedure: as §1, §2

S. pneumoniae #1629 = test: as above; conditions: TSB containing 5% sheep blood, 35-37° C., 20 h
Procedure: as §1, §2

S. pneumoniae 6303 = test: as above; conditions: TSB containing 5% sheep blood, 35-37° C., 20 h
Procedure: as §1, §2

E. coli NR698 = tested on: E. coli NR698; parameters: unit not given beside the values; conditions: LB, 35-37° C., 20 h
Procedure: as §1, §2

[1] = S. aureus 13709 (first strain line)
[2] = S. aureus 13709 (third strain line)

| Compound | MIC (E. coli MG1655) | MIC (E. faecalis 29212) | MIC (E. faecalis 33186) | MIC (S. aureus 13709; [1]) | MIC (S. aureus 13709; [2]) | MIC (S. aureus 25923) | MIC (S. epidermidis 1228) | MIC (S. epidermidis 700562) | MIC (S. pneumoniae #1629) | MIC (S. pneumoniae 6303) | MIC (E. coli NR698) |
| --- | --- | --- | --- | --- | --- | --- | --- | --- | --- | --- | --- |
| CC(=O)NC1C(OC2C(COC3OC(CO)C(O)C(O)C3O)OC(OC3C(OP(=O)(O)OCC(OCc4cccc(OCc5cccc(-c6cccc(OCc7ccccc7)c6)c5)c4)C(=O)O)OC(C(N)=O)C(C)(O)C3OC(N)=O)C(NC(C)=O)C2O)OC(C)C(OC2OC(C(=O)NC3=C(O)CCC3=O)C(O)C(O)C2O)C1O.N [1i, N1-[(2-Hydroxy-5-oxo-cyclopenten-1-yl)-(5S)-β-D-galactopyranuronamide]-(1→4)-2-acetamide-2,6-dideoxy-β-D-gluopyranosyl-(1→4)-[β-D-glucopyranosyl-(1→6)]-2-acetamido-2-deoxy-β-D-glucopyranosyl)-(1→2)-3-O-carbamoyl-1-O—{[(R)-2-carboxy-2-(3-((3′-(benzyloxy)-[1,1′-biphenyl]-3-yl)methoxy)phenylmethan-1-yloxy)ethoxy]hydroxyphosphoryl}-4-C-methyl-α-D-glucopyranuronamide] | > 250 | 16 | 32 | 7.8 | 7.8 | 7.8 | 3.9 | 7.8 | 7.8 | 3.9 | 0.49 |
| CCCCCCCCCCCCCCCCCCCCOC(COP(=O)(O)OC1OC(C(N)=O)C(C)(O)C(OC(N)=O)C1OC1OC(COC2OC(CO)C(O)C(O)C2O)C(OC2OC(C)C(OC3OC(C(=O)NC4=C(O)CCC4=O)C(O)C(O)C3O)C(O)C2NC(C)=O)C(O)C1NC(C)=O)C(=O)O.N [1d, N1-[(2-Hydroxy-5-oxo-cyclopenten-1-yl)-(5S)-β-D-galactopyranuronamide]-(1→4)-2-acetamide-2,6-dideoxy-β-D-gluopyranosyl-(1→4)-[β-D-glucopyranosyl-(1→6)]-2-acetamido-2-deoxy-β-D-glucopyranosyl)-(1→2)-3-O-carbamoyl-1-O—{[(R)-2-carboxy-2-(eicosan-1-yloxy)ethoxy]hydroxyphosphoryl}-4-C-methyl-α-D-glucopyranuronamide] | 7.8 |  |  | 1.3 | 0.63 | 0.63 | 0.63 | 1.3 | 3.1 | 2.0 | 0.0049 |
| CC(=O)NC1C(OC2C(COC3OC(CO)C(O)C(O)C3O)OC(OC3C(OP(=O)(O)OCC(OCCCCCCCCCCC(F)(F)C(F)(F)C(F)(F)C(F)(F)C(F)(F)C(F)(F)C(F)(F)C(F)(F)F)C(=O)O)OC(C(N)=O)C(C)(O)C3OC(N)=O)C(NC(C)=O)C2O)OC(C)C(OC2OC(C(=O)NC3=C(O)CCC3=O)C(O)C(O)C2O)C1O.N [1f, N1-[(2-Hydroxy-5-oxo-cyclopenten-1-yl)-(5S)-β-D-galactopyranuronamide]-(1→4)-2-acetamide-2,6-dideoxy-β-D-gluopyranosyl-(1→4)-[β-D-glucopyranosyl-(1→6)]-2-acetamido-2-deoxy-β-D-glucopyranosyl)-(1→2)-3-O-carbamoyl-1-O—{[(R)-2-carboxy-2-(11,11,12,12,13,13,14,14,15,15,16,16,17,17,18,18,18-heptadecafluoro-octadecan-1-yloxy)ethoxy]hydroxyphosphoryl}-4-C-methyl-α-D-glucopyranuronamide] | 250 | 0.98 | 2.0 | 3.9 | 2.0 | 2.0 | 0.98 | 2.0 | 0.98 | 2.0 | > 0.16 |
| CCCCCCCCCCCCCCCCCCOC(COP(=O)(O)OC1OC(C(N)=O)C(C)(O)C(OC(N)=O)C1OC1OC(COC2OC(CO)C(O)C(O)C2O)C(OC2OC(C)C(OC3OC(C(=O)NC4=C(O)CCC4=O)C(O)C(O)C3O)C(O)C2NC(C)=O)C(O)C1NC(C)=O)C(=O)O.N [1e, N1-[(2-Hydroxy-5-oxo-cyclopenten-1-yl)-(5S)-β-D-galactopyranuronamide]-(1→4)-2-acetamide-2,6-dideoxy-β-D-gluopyranosyl-(1→4)-[β-D-glucopyranosyl-(1→6)]-2-acetamido-2-deoxy-β-D-glucopyranosyl)-(1→2)-3-O-carbamoyl-1-O—{[(R)-2-carboxy-2-(octadecan-1-yloxy)ethoxy]hydroxyphosphoryl}-4-C-methyl-α-D-glucopyranuronamide] | 63 | 0.49 | 0.98 | 2.0 | 0.98 | 0.98 |  |  |  |  | 0.0024 |
| CN[C@H](CC(C)C)C(=O)N[C@H]1C(=O)N[C@@H](CC(N)=O)C(=O)N[C@H]2C(=O)N[C@H]3C(=O)N[C@H](C(=O)N[C@H](C(=O)O)c4cc(O)cc(O)c4-c4cc3ccc4O)[C@H](O)c3ccc(c(Cl)c3)Oc3cc2cc(c3O[C@@H]2O[C@H](CO)[C@@H](O)[C@H](O)[C@H]2O[C@H]2C[C@](C)(N)[C@H](O)[C@H](C)O2)Oc2ccc(cc2Cl)[C@H]1O [Vancomycin•HCl, reference compound] | 250 | 3.9 | 2.0 | 3.9 | 2.0 | 3.9 | 2.0 | 3.9 | 0.49 | 0.49 | 0.49 |
| CC(=O)NC1C(OC2C(COC3OC(CO)C(O)C(O)C3O)OC(OC3C(OP(=O)(O)OCC(OCc4cccc(OCc5cccc(-c6cccc(OCc7cccc(-c8ccccc8)c7)c6)c5)c4)C(=O)O)OC(C(N)=O)C(C)(O)C3OC(N)=O)C(NC(C)=O)C2O)OC(C)C(OC2OC(C(=O)NC3=C(O)CCC3=O)C(O)C(O)C2O)C1O.N [1h, N1-[(2-Hydroxy-5-oxo-cyclopenten-1-yl)-(5S)-β-D-galactopyranuronamide]-(1→4)-2-acetamide-2,6-dideoxy-β-D-gluopyranosyl-(1→4)-[β-D-glucopyranosyl-(1→6)]-2-acetamido-2-deoxy-β-D-glucopyranosyl)-(1→2)-3-O-carbamoyl-1-O—{[(R)-2-carboxy-2-(3-((3′-([1,1′-biphenyl]-3-ylmethoxy)-[1,1′-biphenyl]-3-yl)methoxy)phenylmethan-1-yloxy)ethoxy]hydroxyphosphoryl}-4-C-methyl-α-D-glucopyranuronamide] | 125 | 0.39 | 0.78 | 0.39 | 0.20 | 0.20 |  |  | 2.0 | 0.98 | 0.039 |
| CCCCCCCCCCCCCCCCOC(COP(=O)(O)OC1OC(C(N)=O)C(C)(O)C(OC(N)=O)C1OC1OC(COC2OC(CO)C(O)C(O)C2O)C(OC2OC(C)C(OC3OC(C(=O)NC4=C(O)CCC4=O)C(O)C(O)C3O)C(O)C2NC(C)=O)C(O)C1NC(C)=O)C(=O)O.N [1g, N1-[(2-Hydroxy-5-oxo-cyclopenten-1-yl)-(5S)-β-D-galactopyranuronamide]-(1→4)-2-acetamide-2,6-dideoxy-β-D-gluopyranosyl-(1→4)-[β-D-glucopyranosyl-(1→6)]-2-acetamido-2-deoxy-β-D-glucopyranosyl)-(1→2)-3-O-carbamoyl-1-O—{[(R)-2-carboxy-2-(hexadecan-1-yloxy)ethoxy]hydroxyphosphoryl}-4-C-methyl-α-D-glucopyranuronamide] | 250 | 31 | 16 | 16 | 16 | 16 | 16 | 31 | 16 | 16 | 0.16 |
| CC(=O)NC1C(OC2C(COC3OC(CO)C(O)C(O)C3O)OC(OC3C(OP(=O)(O)OCC(OCC=C(C)CCC=C(C)CCC=C(C)CCC=C(C)C)C(=O)O)OC(C(N)=O)C(C)(O)C3OC(N)=O)C(NC(C)=O)C2O)OC(C)C(OC2OC(C(=O)NC3=C(O)CCC3=O)C(O)C(O)C2O)C1O.N [1b, N1-[(2-Hydroxy-5-oxo-cyclopenten-1-yl)-(5S)-β-D-galactopyranuronamide]-(1→4)-2-acetamide-2,6-dideoxy-β-D-gluopyranosyl-(1→4)-[β-D-glucopyranosyl-(1→6)]-2-acetamido-2-deoxy-β-D-glucopyranosyl)-(1→2)-3-O-carbamoyl-1-O—{[(R)-2-carboxy-2-((2Z,6E,10E)-3,7,11,15-tetramethyl-hexadeca-2,6,10,14-tetraen-1-yloxy)ethoxy]hydroxyphosphoryl}-4-C-methyl-α-D-glucopyranuronamide] | 63 |  |  | 3.9 | 2.0 | 3.9 |  |  | 3.9 | 2.0 | 0.061 |
